Measurements reported in article PMC6966871 (Journal of Hematology & Oncology, 2020).

Assays:
[1] = tested on: lung adenocarcinoma patient-derived xenograft (PDX); conditions: with overexpression of c-MET; ref our preclinical study; cited from earlier work
KDR [h] = tested on: KDR [h]; design: method as in unpublished data; conditions: 0.2 μM in vitro; one range for all five kinases; ref unpublished data; cited from earlier work
VEGFR = tested on: VEGFR; design: method as in unpublished data; conditions: preclinical; ref unpublished data; read-out: IC50 against VEGFR; cited from earlier work
c-MET [h] = tested on: c-MET [h]; design: method as in unpublished data; conditions: 0.2 μM in vitro; one range for all five kinases; ref unpublished data; cited from earlier work
DDR2[h] = tested on: DDR2[h]; design: method as in unpublished data; conditions: 0.2 μM in vitro; one range for all five kinases; ref unpublished data; cited from earlier work
AXL kinase = conditions: read-out: IC50 against AXL kinase; cited from earlier work
Ron [h] = tested on: Ron [h]; design: method as in unpublished data; conditions: 0.2 μM in vitro; one range for all five kinases; ref unpublished data; cited from earlier work
[2] = design: species or system human (Chinese patients); conditions: human, in vivo
Description: (§1) For the single-dose PK test in the cycle 0, serial peripheral blood samples were collected at pre-dose and at 0.5, 1, 2, 3, 4, 6, 8, 12, 16, 24, 48, 72, and 144 h post-dose. For the continuous dose PK test in the cycle 1, serial peripheral blood samples were collected at pre-dose on days 8, 15, 22, and 28, and at 0.5, 1, 2, 3, 4, 5, 6, 8, 12, 16, 24, 48, and 72 h post-dose on day 28. All serial peripheral blood samples were collected in heparin sodium anticoagulation tubes and centrifuged at 1900g for 10 min before storage at − 80 °C until analysis.

[3] = tested on: advanced non-small cell lung cancer; test: Tumor response assessed by investigators per RECIST v1.1; format: in vivo, human (Chinese patients); conditions: for Partial remission (PR) / Progressive disease (PD): number of patients (%)
phosphorylation of c-MET = conditions: patient-derived xenograft tumors and MET-amplified cell lines, dose-dependent; cited from earlier work
EBC-1 cell line = conditions: read-out: IC50 against the growth of lung cancer EBC-1 cell line; cited from earlier work
AXL [h] = tested on: AXL [h]; design: method as in unpublished data; conditions: 0.2 μM in vitro; one range for all five kinases; ref unpublished data; cited from earlier work
[4] = target: wild-type c-Met tyrosine kinase; conditions: enzymatic assay; read-out: IC50 against wild-type c-Met tyrosine kinase; cited from earlier work
[5] = Continuous dose (QD) pharmacokinetics (cycle 1, day 28) in patients; format: in vivo, human (Chinese patients); conditions: continuous QD dosing, 100 mg to 800 mg
Description: as §1

METex14-altered NSCLC = tested on: METex14-altered NSCLC; design: method as in doi:10.1200/JCO.2016.34.15_suppl.108; conditions: METex14-altered NSCLC patients; cited from earlier work
[6] = 20 patients, AEs reported by > 20% of patients
[7] = safety population N = 20, 100–800 mg qd, number of patients (%)
[8] = 100 mg/qd group (printed 1 0 mg/qd), n = 4

SMILES: O=C(Nc1ccc(Oc2ccnc3c2CCN3)c(F)c1)c1c[nH]cc(-c2ccc(F)cc2)c1=O
- AEs (any grades) leading to dose adjustment (600 mg/qd group): one patient
- AEs (any grades) leading to dose discontinuation (600 mg/qd group n = 2, 800 mg/qd group n = 2): four patients
- TRAE of grade 3 or higher: hypertension (20 patients): 15%
- TRAE of grade 3 or higher: laryngeal pain (20 patients): 5%
- TRAE of grade 3 or higher: pulmonary embolism (20 patients): 5%
- TRAE: constipation (20 patients): 30%
- TRAE: dysgeusia (20 patients): 40%
- TRAE: increased ALT / ALT elevation (20 patients): 40%
- gastrointestinal symptoms such as vomiting and diarrhea, frequency reported (20 patients): ≤ 10%
- patients experiencing grade 3 AEs (20 patients): 45%
- rate of dose reduction due to AEs (20 patients): 5%
- patients with TRAEs of grade 3 or higher during treatment (20 patients (300 mg/qd n = 1; 600 mg/qd n = 2; 800 mg/qd n = 1)): 20%
- patients with treatment-related AEs (20 patients, 100–800 mg qd): 85%
- TRAE: palmar-plantar erythrodysesthesia syndrome (20 patients, abstract): 15%
- TRAE: hypertension (20 patients, any grade): 25%
- AE (any cause): constipation [6]: 40%
- AE (any cause): dysgeusia [6]: 40%
- AE (any cause): hypertension [6]: 25%
- AE (any cause): increased alanine transaminase (ALT) [6]: 40%
- AE (any cause): increased conjugated bilirubin [6]: 25%
- AE (any cause): increased hemobilirubin [6]: 25%
- AE (any cause): nausea [6]: 25%
- dose-limiting toxicity (DLT) (doses up to 800 mg once daily): No dose-limiting toxicity (DLT) was observed
- maximum tolerated dose (MTD) (maximum dose investigated 800 mg QD): not reached
- serious adverse events (pulmonary embolism, 600 mg/qd group, probably related to study treatment): One serious adverse event
- Treatment-related adverse event: Constipation, Grade ≥ 3 [7]: 0
- Treatment-related adverse event: Constipation, any grade [7]: 6 (30%)
- Treatment-related adverse event: Dysgeusia, Grade ≥ 3 [7]: 0
- Treatment-related adverse event: Dysgeusia, any grade [7]: 8 (40%)
- Treatment-related adverse event: Hypertension, Grade ≥ 3 [7]: 3 (15%)
- Treatment-related adverse event: Hypertension, any grade [7]: 5 (25%)
- Treatment-related adverse event: Increase AST, Grade ≥ 3 [7]: 0
- Treatment-related adverse event: Increase AST, any grade [7]: 4 (20%)
- Treatment-related adverse event: Increased ALT, Grade ≥ 3 [7]: 0
- Treatment-related adverse event: Increased ALT, any grade [7]: 8 (40%)
- Treatment-related adverse event: Increased conjugated bilirubin, Grade ≥ 3 [7]: 0
- Treatment-related adverse event: Increased conjugated bilirubin, any grade [7]: 5 (25%)
- Treatment-related adverse event: Increased creatine phosphokinase, Grade ≥ 3 [7]: 0
- Treatment-related adverse event: Increased creatine phosphokinase, any grade [7]: 3 (15%)
- Treatment-related adverse event: Increased gamma-glutamyltransferase, Grade ≥ 3 [7]: 0
- Treatment-related adverse event: Increased gamma-glutamyltransferase, any grade [7]: 4 (20%)
- Treatment-related adverse event: Increased hemobilirubin, Grade ≥ 3 [7]: 0
- Treatment-related adverse event: Increased hemobilirubin, any grade [7]: 5 (25%)
- Treatment-related adverse event: Increased unconjugated bilirubin, Grade ≥ 3 [7]: 0
- Treatment-related adverse event: Increased unconjugated bilirubin, any grade [7]: 3 (15%)
- Treatment-related adverse event: Palmar-plantar erythrodysesthesia, Grade ≥ 3 [7]: 0
- Treatment-related adverse event: Palmar-plantar erythrodysesthesia, any grade [7]: 3 (15%)
- Treatment-related adverse event: Papulosis, Grade ≥ 3 [7]: 0
- Treatment-related adverse event: Papulosis, any grade [7]: 2 (10%)
- patients with drug discontinuation due to treatment-related AE (two patients in 600 mg/qd group and one in 800 mg/qd group): 15%
- tumor growth of lung adenocarcinoma [1]: significantly inhibited tumor growth
- inhibition of KDR [h] (KDR [h]): 88–100%
- IC50 (VEGFR): 30 nM
- inhibition of c-MET [h] (c-MET [h]): 88–100%
- inhibition of DDR2[h] (DDR2[h]): 88–100%
- IC50 (AXL kinase): 9 nM
- inhibition of Ron [h] (Ron [h]): 88–100%
- dose at which exposure (AUC and Cmax) reached saturation [2]: 600 mg
- dose proportionality of maximal plasma concentration (Cmax) [2]: increased obviously less than dose proportionally
- dose proportionality of plasma exposure (AUC0–last) [2]: increased slightly less than dose proportionally
- mean t1/2 (half-life) [2]: 7.9 to 37.3 h
- Disease control rate, % (95%CI) [3, 8]: 0 (NA, NA) %
- Objective remission rate, % (95%CI) [3, 8]: 0 (NA, NA) %
- Partial remission (PR) [3, 8]: 0
- Progressive disease (PD) [3, 8]: 3 (100.0%)
- Disease control rate, % (95%CI) ([3]; 200 mg/qd group, n = 3): 66.7 (9.43, 99.16) %
- Objective remission rate, % (95%CI) ([3]; 200 mg/qd group, n = 3): 0 (NA, NA) %
- Partial remission (PR) ([3]; 200 mg/qd group, n = 3): 0
- Progressive disease (PD) ([3]; 200 mg/qd group, n = 3): 1 (33.3%)
- Disease control rate, % (95%CI) ([3]; 300 mg/qd group, n = 3): 66.7 (9.43, 99.16) %
- Objective remission rate, % (95%CI) ([3]; 300 mg/qd group, n = 3): 0 (NA, NA) %
- Partial remission (PR) ([3]; 300 mg/qd group, n = 3): 0
- Progressive disease (PD) ([3]; 300 mg/qd group, n = 3): 1 (33.3%)
- Disease control rate, % (95%CI) ([3]; 450 mg/qd group, n = 4): 50.0 (6.76, 93.24) %
- Objective remission rate, % (95%CI) ([3]; 450 mg/qd group, n = 4): 0 (NA, NA) %
- Partial remission (PR) ([3]; 450 mg/qd group, n = 4): 0
- Progressive disease (PD) ([3]; 450 mg/qd group, n = 4): 2 (50.0%)
- Disease control rate, % (95%CI) ([3]; 600 mg/qd group, n = 3): 66.7 (9.43, 99.16) %
- Objective remission rate, % (95%CI) ([3]; 600 mg/qd group, n = 3): 0 (NA, NA) %
- Partial remission (PR) ([3]; 600 mg/qd group, n = 3): 0
- Progressive disease (PD) ([3]; 600 mg/qd group, n = 3): 1 (33.3%)
- Disease control rate, % (95%CI) ([3]; 800 mg/qd group, n = 3): 100.0(29.24,100.0) %
- Objective remission rate, % (95%CI) ([3]; 800 mg/qd group, n = 3): 33.3 (0.84, 90.57) %
- Partial remission (PR) ([3]; 800 mg/qd group, n = 3): 1 (33.3%)
- Progressive disease (PD) ([3]; 800 mg/qd group, n = 3): 0
- patients with tumor burden reduced from baseline ([3]; 19 evaluable patients): 53%
- ORR ([3]; 19 evaluable patients, text (95% CI 0.1–26%)): 5%
- DCR ([3]; 19 evaluable patients, text (95% CI 34–80%)): 58%
- Disease control rate, % (95%CI) ([3]; Total, N = 20 (19 evaluable)): 57.9 (33.50, 79.75) %
- Objective remission rate, % (95%CI) ([3]; Total, N = 20 (19 evaluable)): 5.3 (0.13, 26.03) %
- Partial remission (PR) ([3]; Total, N = 20 (19 evaluable)): 1 (5.3%)
- Progressive disease (PD) ([3]; Total, N = 20 (19 evaluable)): 8 (42.1%)
- number of patients with a partial response ([3]; among 19 evaluable patients): 1
- number of patients with stable disease ([3]; among 19 evaluable patients): 10 patients
- DCR ([3]; patients (n = 11) with MET gene amplification or c-MET overexpression, exploratory): 82%
- ORR ([3]; patients without MET dysregulation (eight patients), exploratory): 0%
- phosphorylation of c-MET and downstream signaling targets (ERK, AKT) (phosphorylation of c-MET): inhibits the phosphorylation of c-MET
- IC50 (EBC-1 cell line): 120 nM
- inhibition of AXL [h] (AXL [h]): 88–100%
- IC50 [4]: 6 nM
- time after which steady-state concentration was reached [5]: 28 days

SMILES: C[C@@H](Oc1cc(-c2cnn(C3CCNCC3)c2)cnc1N)c1c(Cl)ccc(F)c1Cl [Crizotinib]
- unconfirmed response rate (METex14-altered NSCLC): up to 44%
